From patent US20100144712A1 (priority 2007, published 2010)
Converted amounts (≈) assume the structure as drawn.

Columns and labels:
Assay type in all cases: cell-based
[1] = system: Candida albican ATCC 64550; test: In vitro antifungal activity (MIC80), Candida albican ATCC 64550; conditions: Candida, ATCC64550; Table 2, 64550; read-out: Minimal inhibitory concentration (MIC80)
Summary of the method: (§1)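 MIC80 is the lowest concentration that cuts growth by 80% compared with untreated cells, with alamarBlue as the growth read-out. Compounds were serially diluted in RPMI 1640 (0.25–256 […]; DMSO 2% v/v final) and added to 1.0×10^3–5.0×10^3 CFU/ml yeast suspensions, in duplicate runs.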

[2] = system: Candida albican ATCC MYA-574; test: In vitro antifungal activity (MIC80), Candida albican ATCC MYA-574; conditions: Candida; Table 2, MYA 574; read-out: Minimal inhibitory concentration (MIC80)
Summary of the method: as §1

[3] = system: Candida albican ATCC 204276; test: In vitro antifungal activity (MIC80), Candida albican ATCC 204276; conditions: ATCC204276, Table 2, 204276, read-out: Minimal inhibitory concentration (MIC80)
Experimental: (§2) In vitro antifungal activities of the inventive antifungal compounds were evaluated using test strains including Candida albican (ATCC 90873, 204276, 62342, 64124, 64550, 96901, MYA-573, MYA-574, MYA-575, MYA-576, MYA-1003) and Aspergillus fumigatus (ATCC 16424). Test samples and positive control samples were prepared by dissolving the inventive compounds and comparative compounds, i.e., amphotericin B, fluconazole and itraconazole, in DMSO, respectively, and each successively diluted with medium to obtain test and positive control solutions having test compound concentrations of 0.125 μg/ml to a maximum concentration not generating turbidity. Minimal inhibitory concentration (MIC80) of each compound was determined as the lowest concentration of the test compounds required to reduce growth by 80% relative to a control strain not treated.
(§3) 1) Test strain: Candida albican ATCC 90873, 204276, 62342, 64124, 64550, 96901, MYA-573, MYA-574, MYA-575, MYA-576, MYA-1003, and Aspergillus fumigatus ATCC 16424 were commercially obtained from The American Type Culture Collection (ATCC) and subcultured in CHEMON Co. Ltd. (amphotericin B was commercially purchased from Sigma, and fluconazole and itraconazole were prepared according to methods described in British Patent No. 2,099,818; and U.S. Pat. No. 4,267,179, respectively).
(§4) 2) Medium and culture condition: Candida albican was cultured in Sabourad Dextrose Agar, YM Agar or Potato Dextrose Agar according to ATCC information at a temperature of 37° C., 35° C., 30° C. or 25° C. Aspergillus fumigatus was cultured in Malt Extract Agar or Potato Dextrose Agar at a temperature ranging from 24 to 27° C.
(§5) 3) Preparation of test samples: the inventive compounds and comparative compounds were each diluted with DMSO to obtain 1 to 2 ml of a test sample in a concentration of 100-folds of the determining maximum concentration (256 μg/ml).
(§6) The test samples were each successively diluted with RPMI 1640 to obtain test solutions having concentrations of […] in a 12×75 mm sterilized disposable culture tube. The final concentration of DMSO was adjusted to […] (v/v).
(§7) 5) Preparation of strain solution and inoculation
(§8) Candida albican strains were each subcultured in Sabourad Dextrose Agar, YM Agar or Potato Dextrose Agar medium at 35° C. for 2˜3 days. In the case of yeasts, a single colony was taken from prominent colonies and suspended in 0.85% sterile physiological saline solution and the turbidity of the suspension was adjusted to 80˜82% at 530 nm, and then diluted 50-fold with RPMI 1640 medium to 1.0×10^3˜5.0×10^3 CFU/ml. The turbidity of fungi was adjusted to 80˜82% and the suspension was diluted 50-fold to […]. Aspergillus fumigatus strains were subcultured in Malt Extract Agar for 7˜10 days, and a single colony was taken from prominent colonies and suspended in 0.85% sterile physiological saline solution and the suspension was adjusted to 0.108 at 530 nm, and then diluted 1000-fold with RPMI 1640 medium to 0.4×10^2˜5×10^4 CFU/ml. The turbidity of fungi was adjusted to 80˜82% and the suspension was diluted 50-fold to 0.4102˜0.5104 CFU/ml.
(§9) The strain solutions thus obtained were each seeded into a sterilized 96-well microplate, 0.1 ml of each test solution were added thereto, and […] of alamarblue was treated to each well (Biosource, #DAL1100). This procedure was repeated 2 times.
(§10) Minimal inhibitory concentration (MIC80) of each compound was determined as the lowest concentration of the test compounds required to reduce growth by 80% relative to a control strain not treated.

[4] = system: Candida albican ATCC 96901; test: In vitro antifungal activity (MIC80), Candida albican ATCC 96901; conditions: Candida, ATCC96901; Table 2, ATCC 96901; read-out: Minimal inhibitory concentration (MIC80)
Summary of the method: as §1

[5] = system: Candida albican ATCC 62342; test: In vitro antifungal activity (MIC80), Candida albican ATCC 62342; conditions: Candida, ATCC62342; Table 2, 62342; read-out: Minimal inhibitory concentration (MIC80)
Summary of the method: as §1

[6] = system: Candida albican ATCC 64124; test: In vitro antifungal activity (MIC80), Candida albican ATCC 64124; conditions: Candida, ATCC64124; Table 2, 64124; read-out: Minimal inhibitory concentration (MIC80)
Summary of the method: as §1

[7] = system: Candida albican ATCC 90873; test: In vitro antifungal activity (MIC80), Candida albican ATCC 90873; conditions: Candida, ATCC90873; Table 2, ATCC 90873; read-out: Minimal inhibitory concentration (MIC80)
Summary of the method: as §1

[8] = system: Candida albican ATCC MYA-1003; test: In vitro antifungal activity (MIC80), Candida albican ATCC MYA-1003; conditions: Candida; Table 2, MYA 1003; read-out: Minimal inhibitory concentration (MIC80)
Summary of the method: as §1

[9] = system: Candida albican ATCC MYA-576; test: In vitro antifungal activity (MIC80), Candida albican ATCC MYA-576; conditions: Candida; Table 2, MYA 576; read-out: Minimal inhibitory concentration (MIC80)
Summary of the method: as §1

[10] = system: Candida albican ATCC MYA-573; test: In vitro antifungal activity (MIC80), Candida albican ATCC MYA-573; conditions: Candida; Table 2, MYA 573; read-out: Minimal inhibitory concentration (MIC80)
Summary of the method: as §1

[11] = system: Candida albican ATCC MYA-575; test: In vitro antifungal activity (MIC80), Candida albican ATCC MYA-575; conditions: Candida; Table 2, MYA 575; read-out: Minimal inhibitory concentration (MIC80)
Summary of the method: as §1

[12] = system: Aspergillus fumigatus (ATCC 16424); test: In vitro antifungal activity (MIC80), Aspergillus fumigatus ATCC 16424; conditions: Aspergillus fumigatus, ATCC16424, Table 2, ATCC 16424; read-out: Minimal inhibitory concentration (MIC80)
Experimental: as §2, §3, §4, §5, §6, §7, §8, §9, §10
MIC80 of each of the compounds of which antifungal activities can be confirmed by Table 2 was determined using other test strains, i.e., Aspergillus fumigatus ATCC 16424 and MYA-1163, Aspergillus terreus ATCC 28301, Aspergillus flavus ATCC MYA-1004, and Aspergillus niger ATCC 9142.

SMILES | MIC80 [1] | MIC80 [2] | MIC80 [3] | MIC80 [4] | MIC80 [5] | MIC80 [6] | MIC80 [7] | MIC80 [8] | MIC80 [9] | MIC80 [10] | MIC80 [11] | MIC80 [12]
CC(N1CCN(C(=O)c2cn3c(C(=O)c4ccccc4)cnc3s2)CC1)C(O)(Cn1cncn1)c1ccc(F)cc1F [Example 55, (4-((2R,3R)-3-(2,4-difluorophenyl)-3-hydroxy-4-(1H-1,2,4-triazol-1-yl)butan-2-yl)piperazin-1-yl)(5-benzoyl-imidazo[2,1,-b]-thiazol-2-yl)methanone] | 4 µg/mL (≈ 6.76 µM) | 8 µg/mL (≈ 13.5 µM) | 0.125 µg/mL (≈ 0.211 µM) | 8 µg/mL (≈ 13.5 µM) | 0.5 µg/mL (≈ 0.845 µM) | 16 µg/mL (≈ 27 µM) | 0.125 µg/mL (≈ 0.211 µM) | > 128 µg/mL | 0.125 µg/mL (≈ 0.211 µM) | 1 µg/mL (≈ 1.69 µM) | 8 µg/mL (≈ 13.5 µM) | 1 µg/mL (≈ 1.69 µM)
COc1ccc(C(=O)c2cnc3sc(C(=O)N4CCN(C(C)C(O)(Cn5cncn5)c5ccc(F)cc5F)CC4)cn23)cc1 (stereo not drawn) [Example 57] | 4 µg/mL (≈ 6.43 µM) | 8 µg/mL (≈ 12.9 µM) | 0.125 µg/mL (≈ 0.201 µM) | 8 µg/mL (≈ 12.9 µM) | 0.5 µg/mL (≈ 0.804 µM) | 8 µg/mL (≈ 12.9 µM) | 0.125 µg/mL (≈ 0.201 µM) | > 128 µg/mL | 0.125 µg/mL (≈ 0.201 µM) | 1 µg/mL (≈ 1.61 µM) | 8 µg/mL (≈ 12.9 µM) | 0.5 µg/mL (≈ 0.804 µM)
Cc1ccc(C(=O)c2cnc3sc(C(=O)N4CCN([C@H](C)[C@](O)(Cn5cncn5)c5ccc(F)cc5F)CC4)cn23)cc1 [Example 56, (4-((2R,3R)-3-(2,4-difluorophenyl)-3-hydroxy-4-(1H-1,2,4-triazol-1-yl)butan-2-yl)piperazin-1-yl)(5-(4-methylbenzoyl)-imidazo[2,1-b]-thiazol-2-yl)methanone] | 2 µg/mL (≈ 3.3 µM) | 4 µg/mL (≈ 6.6 µM) | 0.25 µg/mL (≈ 0.413 µM) | 8 µg/mL (≈ 13.2 µM) | 0.5 µg/mL (≈ 0.826 µM) | 8 µg/mL (≈ 13.2 µM) | 0.25 µg/mL (≈ 0.413 µM) | > 128 µg/mL | 0.125 µg/mL (≈ 0.206 µM) | 1 µg/mL (≈ 1.65 µM) | 4 µg/mL (≈ 6.6 µM) | 1 µg/mL (≈ 1.65 µM)
C[C@@H](N1CCN(c2nc3ccccc3n2C)CC1)[C@](O)(Cn1cncn1)c1ccc(F)cc1F [Example 3, (2R,3R)-2-(2,4-difluorophenyl)-3-(4-(1-methyl-1H-benzoimidazol-2-yl)piperazin-1-yl)-1-(1H-1,2,4-triazol-1-yl)butan-2-ol] | 2 µg/mL (≈ 4.28 µM) | 16 µg/mL (≈ 34.2 µM) | 0.125 µg/mL (≈ 0.267 µM) | 4 µg/mL (≈ 8.56 µM) | 8 µg/mL (≈ 17.1 µM) | 16 µg/mL (≈ 34.2 µM) | 0.125 µg/mL (≈ 0.267 µM) | > 128 µg/mL | 0.125 µg/mL (≈ 0.267 µM) | 4 µg/mL (≈ 8.56 µM) | 16 µg/mL (≈ 34.2 µM) | 1 µg/mL (≈ 2.14 µM)

The remaining lines, values ahead:

MIC80 [1] | MIC80 [2] | MIC80 [3] | MIC80 [4] | MIC80 [5] | MIC80 [6] | MIC80 [7] | MIC80 [8] | MIC80 [9] | MIC80 [10] | MIC80 [11] | MIC80 [12] | SMILES
4 µg/mL (≈ 9.23 µM) | 32 µg/mL (≈ 73.8 µM) | 0.125 µg/mL (≈ 0.288 µM) | 64 µg/mL (≈ 148 µM) | 4 µg/mL (≈ 9.23 µM) | 32 µg/mL (≈ 73.8 µM) | 0.125 µg/mL (≈ 0.288 µM) | > 128 µg/mL | 0.125 µg/mL (≈ 0.288 µM) | 2 µg/mL (≈ 4.61 µM) | 32 µg/mL (≈ 73.8 µM) | 0.5 µg/mL (≈ 1.15 µM) | C[C@@H](N1CCN(Cc2cccs2)CC1)[C@](O)(Cn1cncn1)c1ccc(F)cc1F [Example 44, (2R,3R)-2-(2,4-difluorophenyl)-3-(4-((thiophen-2-yl)methyl)piperazin-1-yl)-1-(1H-1,2,4-triazol-1-yl)butan-2-ol]
1 µg/mL (≈ 2.2 µM) | 32 µg/mL (≈ 70.4 µM) | 0.125 µg/mL (≈ 0.275 µM) | 4 µg/mL (≈ 8.8 µM) | 0.125 µg/mL (≈ 0.275 µM) | 4 µg/mL (≈ 8.8 µM) | 0.125 µg/mL (≈ 0.275 µM) | 128 µg/mL (≈ 282 µM) | 0.125 µg/mL (≈ 0.275 µM) | 1 µg/mL (≈ 2.2 µM) | 32 µg/mL (≈ 70.4 µM) | 0.5 µg/mL (≈ 1.1 µM) | C[C@@H](N1CCN(c2nc3ccccc3o2)CC1)[C@](O)(Cn1cncn1)c1ccc(F)cc1F [Example 1, (2R,3R)-3-(4-(benzooxazol-2-yl)piperazin-1-yl)-2-(2,4-difluorophenyl)-1-(1H-1,2,4-triazol-1-yl)butan-2-ol]
1 µg/mL (≈ 2.41 µM) | 32 µg/mL (≈ 77.2 µM) | 0.125 µg/mL (≈ 0.302 µM) | 16 µg/mL (≈ 38.6 µM) | 1 µg/mL (≈ 2.41 µM) | 8 µg/mL (≈ 19.3 µM) | 0.125 µg/mL (≈ 0.302 µM) | 64 µg/mL (≈ 154 µM) | 0.125 µg/mL (≈ 0.302 µM) | 0.5 µg/mL (≈ 1.21 µM) | 32 µg/mL (≈ 77.2 µM) | 16 µg/mL (≈ 38.6 µM) | C[C@@H](N1CCN(c2ccccn2)CC1)[C@](O)(Cn1cncn1)c1ccc(F)cc1F [Example 16, (2R,3R)-2-(2,4-difluorophenyl)-3-(4-(pyridin-2-yl)piperazin-1-yl)-1-(1H-1,2,4-triazol-1-yl)butan-2-ol]
2 µg/mL (≈ 4.81 µM) | > 128 µg/mL | 0.125 µg/mL (≈ 0.301 µM) | 8 µg/mL (≈ 19.3 µM) | 4 µg/mL (≈ 9.63 µM) | 16 µg/mL (≈ 38.5 µM) | 0.125 µg/mL (≈ 0.301 µM) | > 128 µg/mL | 0.125 µg/mL (≈ 0.301 µM) | 1 µg/mL (≈ 2.41 µM) | > 128 µg/mL | 0.125 µg/mL (≈ 0.301 µM) | C[C@@H](N1CCN(c2ncccn2)CC1)[C@](O)(Cn1cncn1)c1ccc(F)cc1F [Example 18, (2R,3R)-2-(2,4-difluorophenyl)-3-(4-(pyrimidin-2-yl)piperazin-1-yl)-1-(1H-1,2,4-triazol-1-yl)butan-2-ol]
